Measurements published in patent US20120083522A1, “MODULATION OF INFLAMMATORY RESPONSES BY FACTOR XI” (Isis Pharmaceuitcals, inc., priority 2009, published 2012).
Entries after “also recorded” stand apart in the source; their conditions may differ. In the oligonucleotide strings, read from the 5' end, every base follows the letter of its sugar. An asterisk marks phosphorothioate; unmarked linkages are phosphodiester. Other units and linkages are bracketed, terminal groups are in braces. A string of capitals states the bases alone. e = 2'-O-(2-methoxyethyl) (MOE); [5mC] = 5-methylcytosine; d = 2'-deoxy (DNA)

Tests used:
[1] = test system: collagen-induced arthritis (CIA) model; experiment: Arthritis Study A: collagen-induced arthritis (Example 11); format: in vivo, DBA/1J mice; details: for incidence of CIA (in words): 20 mg/kg
Description: The effect of inhibition of Factor XI and its role in fibrin accumulation in the joints leading to joint inflammation and rheumatoid arthritis was evaluated in a murine collagen-induced arthritis (CIA) model. […] Arthritis induced in mice administered collagen can be visually assessed and clinically scored as described by Marty et al. (J Clin Invest, 107:631-640, 2001) where 1 point is given for each swollen digit except the thumb (maximum, 4), 1 point is given for the tarsal or carpal joint, and 1 point is given for the metatarsal or metacarpal joint with a maximum score of […]. Each paw was graded individually, the cumulative clinical arthritic score per mouse reaching a maximum of 22 points
In a group of 15 DBA/1J mice, 20 mg/kg of ISIS 404071 was injected subcutaneously twice a week for 12 weeks. One control group of 15 mice was injected with 20 mg/kg of ISIS 403102 twice a week for 12 weeks. Two control groups of 15 mice each were injected with PBS twice a week for 12 weeks. Two weeks after the first oligonucleotide dose, type II bovine collagen (Chondrex Inc, Redmond, Wash.) was mixed with complete Freund's adjuvant, homogenized on ice and the emulsion, containing 100 μg of collagen, was injected subcutaneously at the base of the tail in the Factor XI group, the Factor VII group and one of the PBS control groups. A booster injection containing 100 μg collagen type II in incomplete Freund's adjuvant was injected subcutaneously at the base of the tail at a different injection site on day 21 after the first collagen injection in these groups.
Starting 35 days from the first collagen injection, mice in all groups were examined daily for the visual appearance of arthritis, such as swelling and stiffness, in peripheral joints. The results are presented in Table 20 (expressed as a percentage of the PBS control) and in FIGS. 1-3.
‘Incidence of CIA’ refers to the percentage of mice in each group that had CIA at day 40. The ‘percentage of paws affected’ refers to the percentage of paws out of a total of 60 paws in each group of mice that were affected with arthritis. ‘Average number of affected paws’ refers to the number of affected paws in mice that were diagnosed to have arthritis. The ‘clinical severity of CIA’ was scored as described by Marty et al. (J Clin Invest, 107:631-640, 2001) and as follows: 1 point for each swollen digit except the thumb (maximum, 4), 1 point for the tarsal or carpal joint, and 1 point for the metatarsal or metacarpal joint with a maximum score of 6 for a hindpaw and 5 for a forepaw. Each paw was graded individually, the cumulative clinical arthritic score per mouse reaching a maximum of 22 points.

[2] = test system: IFN-γ, IL-10, IL-12, IL-1β, IL-2, IL-4, IL-5, TNF-α, KC; experiment: Colitis Study E: cytokine levels in colon (multiplex ELISA); format: in vivo, Swiss Webb mice; details: for IFN-γ level in the colon / IL-1β level in the colon / IL-2 level in the colon / IL-4 level in the colon / IL-5 level in the colon / IL-10 level in the colon / IL-12 level in the colon / KC level in the colon / TNF-α level in the colon: DSS-treated mice
Description: Two groups 8 Swiss Webb mice were dosed with 40 mg/kg of ISIS 404071 injected subcutaneously twice a week for 3 weeks. Two control groups of 8 Swiss Webb mice were dosed with PBS subcutaneously twice a week for 3 weeks. Both the ASO treated groups and one of the control groups were then given 4% DSS in distilled water for 7 days ad libitum. One of the ASO and DSS treated groups was also given intravenous injections of 20 μg of recombinant human Factor XI protein (Haematologic Technologies Inc.) for 7 consecutive days, starting the day before DSS treatment. Mice were sacrificed at the end of the study on day 7 after DSS was administered.
The cytokine levels of IFN-γ, IL-10, IL-12, IL-1β, IL-2, IL-4, IL-5, TNF-α, and keratinocyte chemoattractant (KC) were measured in the colon of the mice groups at the end of the study on day 7 after DSS was administered. Colons were homogenized on ice in PBS supplemented with protease inhibitors (Sigma, St. Louis, Mo.) and extracted with rotation at 4° C. for 1 hour. After removal of insoluble material by centrifugation, colon homogenates were used for the cytokine analysis by multiplex ELISA (Mouse TH1/TH2 9-Plex Ultra-Sensitive Kit, Meso Scale Discovery, Gaithersburg, Md.) according to the manufacture's protocol. Cytokine levels in colon extracts were normalized to the protein concentration measured by protein assay kit (BioRad, Hercules, Calif.). The levels of pro-inflammatory cytokines, IFN-γ, IL-1β, IL-10, IL-2, IL-5, TNF-α, and KC were elevated by DSS administration, and were decreased by treatment with ISIS 404071.

murine Factor XI mRNA = experiment: In vivo antisense inhibition of murine Factor XI: liver RNA analysis (Example 10); details: BALB/c mice, relative to PBS control
Description: Several antisense oligonucleotides targeted to murine Factor XI mRNA (GENBANK Accession No. NM_028066.1, incorporated herein as SEQ ID NO: 6) showing statistically significant dose-dependent inhibition from the in vitro study were evaluated in vivo. BALB/c mice were treated with ISIS 404057 ([…], target start site 487, incorporated herein as SEQ ID NO: 10) and ISIS 404071 ([…], target start site 869, incorporated herein as SEQ ID NO: 11).
BALB/c mice were injected with 5 mg/kg, 10 mg/kg, 25 mg/kg, or 50 mg/kg of ISIS 404057 or ISIS 404071 twice a week for 3 weeks. A control group of mice was injected with phosphate buffered saline (PBS) twice a week for 3 weeks. Mice were sacrificed 5 days after receiving the last dose. Whole liver was harvested for RNA analysis and plasma was collected for protein analysis.
RNA was extracted from liver tissue for real-time PCR analysis of Factor XI. […] Results are presented as percent inhibition of Factor XI, relative to control.

TGGTAATCCACTTTCAGAGG (eT*eG*eG*eT*eA*dA*dT*d[5mC]*d[5mC]*dA*d[5mC]*dT*dT*dT*d[5mC]*eA*eG*eA*eG*eG) [ISIS 404071, 5-10-5 MOE gapmer targeting murine Factor XI, target start site 869]
incidence of CIA (in words) ([1]; Arthritis Study A): significantly inhibit the incidence of CIA
incidence of CIA (in words) ([1]; Arthritis Study A, listed as Factor XI ASO): lower incidence of CIA
affected paws (in words) ([1]; Arthritis Study A, FIG. 1B and 2A, listed as Factor XI ASO): lower incidence of affected paws; also recorded: fewer affected paws on average
arthritis severity (in words) ([1]; Arthritis Study A, FIG. 2B): less severe arthritis than the control mice
timeline of CIA incidence (in words) ([1]; Arthritis Study A, FIG. 3): developed CIA at a later stage with fewer affected mice
Average no. of paws affected ([1]; DBA/1J mice, 20 mg/kg s.c. twice a week for 12 weeks, in mice diagnosed with arthritis): 1
% of paws affected ([1]; DBA/1J mice, 20 mg/kg s.c. twice a week for 12 weeks, out of 60 paws per group): 3%
% of CIA ([1]; DBA/1J mice, 20 mg/kg s.c. twice a week for 12 weeks, percentage of mice in group with CIA at day 40): 13%
Clinical severity of CIA ([1]; DBA/1J mice, 20 mg/kg s.c. twice a week for 12 weeks, score of Marty et al., maximum 22 points): 1
pro-inflammatory cytokine levels in colon: IFN-γ, IL-1β, IL-10, IL-2, IL-5, TNF-α, KC (in words) ([2]; Colitis Study E, day 7): decreased
IFN-γ level in the colon ([2]; day 7, no rFXI): 1.10 pg/mg
IL-1β level in the colon ([2]; day 7, no rFXI): 50 pg/mg
IL-2 level in the colon ([2]; day 7, no rFXI): 0.11 pg/mg
IL-4 level in the colon ([2]; day 7, no rFXI): 0.012 pg/mg
IL-5 level in the colon ([2]; day 7, no rFXI): 0.04 pg/mg
IL-10 level in the colon ([2]; day 7, no rFXI): 4.7 pg/mg
IL-12 level in the colon ([2]; day 7, no rFXI): 64 pg/mg
KC level in the colon ([2]; day 7, no rFXI): 27 pg/mg
TNF-α level in the colon ([2]; day 7, no rFXI): 0.24 pg/mg
IFN-γ level in the colon ([2]; day 7, plus rFXI 20 ug/day): 4.51 pg/mg
IL-1β level in the colon ([2]; day 7, plus rFXI 20 ug/day): 103 pg/mg
IL-2 level in the colon ([2]; day 7, plus rFXI 20 ug/day): 0.28 pg/mg
IL-4 level in the colon ([2]; day 7, plus rFXI 20 ug/day): 0.004 pg/mg
IL-5 level in the colon ([2]; day 7, plus rFXI 20 ug/day): 0.17 pg/mg
IL-10 level in the colon ([2]; day 7, plus rFXI 20 ug/day): 5.8 pg/mg
IL-12 level in the colon ([2]; day 7, plus rFXI 20 ug/day): 96 pg/mg
KC level in the colon ([2]; day 7, plus rFXI 20 ug/day): 62 pg/mg
TNF-α level in the colon ([2]; day 7, plus rFXI 20 ug/day): 0.91 pg/mg
% inhibition (murine Factor XI mRNA; 5 mg/kg twice a week for 3 weeks): 72%
% inhibition (murine Factor XI mRNA; 10 mg/kg twice a week for 3 weeks): 82%
% inhibition (murine Factor XI mRNA; 25 mg/kg twice a week for 3 weeks): 93%
% inhibition (murine Factor XI mRNA; 50 mg/kg twice a week for 3 weeks): 96%
